By IC50 is commonly meant the midpoint of a concentration-inhibition curve.

Here are results for 51 molecules from patent US11266643B2, “Triaryl compounds for treatment of PD-L1 diseases” (CHEMOCENTRYX, INC., priority 2019, dated 2022).

Structures are written as SMILES. Bounds are passed on as bounds.

human PD-L1, sequence (Q9NZQ7 19-239): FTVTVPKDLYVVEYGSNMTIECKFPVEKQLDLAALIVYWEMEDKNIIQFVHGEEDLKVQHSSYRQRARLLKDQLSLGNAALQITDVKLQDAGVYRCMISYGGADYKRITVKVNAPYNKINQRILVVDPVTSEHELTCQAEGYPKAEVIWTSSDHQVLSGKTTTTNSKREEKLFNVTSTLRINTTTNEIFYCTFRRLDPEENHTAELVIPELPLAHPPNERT

The experiment deals with human PD-L1 (Homo sapiens (Human), UniProt Q9NZQ7). The experiment in a line: Enzyme-Linked Immunosorbent Assay (ELISA), PD-1/PD-L1 binding. The following applies: human PD-1/PD-L1 ELISA, plates coated with human PD-L1. The protocol:
96 Well plates were coated with […] of human PD-L1 (obtained from R&D) in PBS overnight at 4° C. The wells were then blocked with 2% BSA in PBS (W/V) with 0.05% TWEEN-20 for 1 hour at 37° C. The plates were washed 3 times with PBS/0.05% TWEEN-20 and the compounds were serial diluted (1:5) in dilution medium and added to the ELISA plates. Human PD-1 […] 0.31 μg/mL (ACRO Biosystems) were added and incubated for 1 hour at 37° C. then washed 3 times with PBS/0.05% TWEEN-20. A second block was performed with 2% BSA in PBS (W/V)/0.05% TWEEN-20 for 10 min at 37° C. and the plates were washed 3 times with PBS/0.05% TWEEN-20. Streptavidin-HRP was added for 1 hour at 37° C. then the plates were washed 3 times with PBS/0.05% TWEEN-20. TMB substrate was added and reacted for 20 min at 37° C. A stop solution (2 N aqueous H2SO4) was added. The absorbance was read at 450 nm using a micro-plate spectrophotometer.
Using the methods described in the Examples above, the compounds in Table 2 were prepared & tested for biological activity using the ELISA method described above.
(An ELISA detects its analyte on a solid surface through an enzyme-linked reagent.)
`COc1cc(-c2cccc(-c3cccc(NC(=O)c4cn(C)c(=O)n(C)c4=O)c3C)c2Cl)cc(F)c1CN[C@H]1CCOC[C@@H]1O` (racemic) [Example 1.011]: the IC50 is less than 10 nM.

The molecule `COc1cc(-c2cccc(-c3cccc(NC(=O)c4cn(C)c(=O)n(C)c4=O)c3C)c2C)cc(F)c1CN[C@H]1CCOC[C@@H]1O` (racemic) [Example 1.013] returned a half-inhibitory concentration (IC50) of less than 10 nM.

`COc1cc(-c2cccc(-c3cccc(NC(=O)c4cncn(C)c4=O)c3C)c2C)cc(F)c1CN[C@@H]1CC[C@H]1O` (racemic) [Example 1.163] showed a 50% inhibitory concentration (IC50) of less than 10 nM.

On to `COc1cc(-c2cccc(-c3cccc(NC(=O)c4cn(C)c(=O)n(C)c4=O)c3C)c2C)cc(F)c1CN[C@H]1COCC[C@@H]1O` [Example 1.001], for which the half-maximal inhibitory concentration (IC50) was less than 10 nM.

Regarding `COc1cc(-c2cccc(-c3cccc(NC(=O)c4cn(C)c(=O)n(C)c4=O)c3C)c2C)cc(F)c1CN[C@@H]1COCC[C@H]1O` [Example 1.002], the IC50 was less than 10 nM.

Take `COc1cc(-c2cccc(-c3cccc(NC(=O)c4cn(C)c(=O)n(C)c4=O)c3C)c2F)cc(F)c1CN[C@@H]1CCC(=O)NC1` [Example 1.004]: the 50% inhibitory concentration (IC50) was less than 10 nM.

`COc1cc(-c2cccc(-c3cccc(NC(=O)c4cn(C)c(=O)n(C)c4=O)c3C)c2F)cc(F)c1CN[C@H]1CCC(=O)NC1` [Example 1.005]: the half-maximal inhibitory concentration (IC50) is less than 10 nM.

Consider `COc1cc(-c2cccc(-c3cccc(NC(=O)c4cn(C)c(=O)n(C)c4=O)c3Cl)c2Cl)cc(F)c1CN[C@@H]1CCOC[C@H]1O` [Example 1.006], for which the IC50 was less than 10 nM.

`COc1cc(-c2cccc(-c3cccc(NC(=O)c4cn(C)c(=O)n(C)c4=O)c3Cl)c2Cl)cc(F)c1CN[C@H]1CCC(=O)NC1` [Example 1.007] registered an IC50 of less than 10 nM.

`COc1cc(-c2cccc(-c3cccc(NC(=O)c4cn(C)c(=O)n(C)c4=O)c3Cl)c2Cl)cc(F)c1CN[C@H]1CCOC[C@H]1O` [Example 1.008] returned an IC50 of less than 10 nM.

`COc1cc(-c2cccc(-c3cccc(NC(=O)c4cn(C)c(=O)n(C)c4=O)c3Cl)c2C)cc(F)c1CN[C@@H]1CCC(=O)NC1` [Example 1.009] showed a concentration for half-maximal inhibition (IC50) of less than 10 nM.

As for `COc1cc(-c2cccc(-c3cccc(NC(=O)c4cn(C)c(=O)n(C)c4=O)c3Cl)c2C)cc(F)c1CN[C@@H]1CCOC[C@@H]1O` [Example 1.010], the IC50 was less than 10 nM.

For `COc1cc(-c2cccc(-c3cccc(NC(=O)c4cn(C)c(=O)n(C)c4=O)c3C)c2C)cc(F)c1CN[C@@H]1CCOC[C@H]1O` [Example 1.012], the IC50 was less than 10 nM.

As for `COc1cc(-c2cccc(-c3cccc(NC(=O)c4cn(C)c(=O)n(C)c4=O)c3C)c2F)cc(F)c1CN[C@@H]1CCOC[C@@H]1O` [Example 1.016], the IC50 was less than 10 nM.

Molecule `COc1cc(-c2cccc(-c3cccc(NC(=O)c4cn(C)c(=O)n(C)c4=O)c3C)c2Cl)cc(F)c1CN[C@@H]1CCOC[C@@H]1O` [Example 1.017] returned a half-maximal inhibitory concentration (IC50) of less than 10 nM.

Consider `COc1cc(-c2cccc(-c3cccc(NC(=O)c4cn(C)c(=O)n(C)c4=O)c3C)c2Cl)cc(F)c1CN[C@H]1CCC(=O)NC1` [Example 1.018], for which the half-inhibitory concentration (IC50) is less than 10 nM.

With `COc1cc(-c2cccc(-c3cccc(Nc4nccc5nccnc45)c3Cl)c2C)cc(F)c1CNC[C@@H]1CCC(=O)N1` [Example 1.019], the IC50 is less than 10 nM.

`COc1cc(-c2cccc(-c3cccc(NC(=O)c4cn(C)c(=O)n(C)c4=O)c3C)c2F)cc(F)c1CN[C@@H]1CNC(=O)C1` [Example 1.020] returned an IC50 of less than 10 nM.

`COc1cc(-c2cccc(-c3cccc(NC(=O)c4cn(C)c(=O)n(C)c4=O)c3C)c2F)cc(F)c1CNC[C@@H]1CCC(=O)N1` [Example 1.021] came in with an IC50 of less than 10 nM.

In the case of `COc1cc(-c2cccc(-c3cccc(Nc4nccc5nccnc45)c3Cl)c2C)cc(F)c1CNCC(C)(C)C(N)=O` [Example 1.022], the IC50 fell in the range of 10 to 1000 nM.

On to `COc1cc(-c2cccc(-c3cccc(Nc4nccc5nccnc45)c3Cl)c2C)cc(F)c1CN[C@@H]1CNC(=O)C1` [Example 1.023], for which the concentration for half-maximal inhibition (IC50) was 10 to 1000 nM.

With `COc1cc(-c2cccc(-c3cccc(Nc4nccc5nccnc45)c3C)c2Cl)cc(F)c1CN[C@@H]1CNC(=O)C1` [Example 1.024], the IC50 is less than 10 nM.

In the case of `COc1cc(-c2cccc(-c3cccc(NC(=O)c4cn(C)c(=O)n(C)c4=O)c3Cl)c2C)cc(F)c1CN[C@H]1CCC(=O)NC1` [Example 1.026], the half-inhibitory concentration (IC50) was less than 10 nM.

In the case of `COc1cc(-c2cccc(-c3cccc(Nc4nccc5nccnc45)c3C)c2Cl)cc(F)c1CNC[C@@H]1CCC(=O)N1` [Example 1.027], the half-inhibitory concentration (IC50) was less than 10 nM.

For `COc1cc(-c2cccc(-c3cccc(Nc4nccc5nccnc45)c3C)c2F)cc(F)c1CNC[C@@H]1CCC(=O)N1` [Example 1.028], the IC50 is 10 to 1000 nM.

`COc1cc(-c2cccc(-c3cccc(Nc4nccc5nccnc45)c3C)c2F)cc(F)c1CNCC(C)(C)C(N)=O` [Example 1.029]: the 50% inhibitory concentration (IC50) was 10 to 1000 nM.

On to `COc1cc(-c2cccc(-c3cccc(NC(=O)c4cn(C)c(=O)n(C)c4=O)c3Cl)c2C)cc(F)c1CNC[C@@H]1CCC(=O)N1` [Example 1.030], for which the IC50 was less than 10 nM.

`COc1cc(-c2cccc(-c3cccc(NC(=O)c4cn(C)c(=O)n(C)c4=O)c3Cl)c2Cl)cc(F)c1CNC[C@@H]1CCC(=O)N1` [Example 1.031] displayed a half-inhibitory concentration (IC50) of less than 10 nM.

In turn, `COc1cc(-c2cccc(-c3cccc(NC(=O)c4cn(C)c(=O)n(C)c4=O)c3Cl)c2C)cc(F)c1CNCC(C)(C)C(N)=O` [Example 1.032] displayed a half-maximal inhibitory concentration (IC50) of less than 10 nM.

On to `COc1cc(-c2cccc(-c3cccc(NC(=O)c4cn(C)c(=O)n(C)c4=O)c3C)c2F)cc(F)c1CNCC(C)(C)C(N)=O` [Example 1.033], for which the 50% inhibitory concentration (IC50) was less than 10 nM.

`COc1cc(-c2cccc(-c3cccc(NC(=O)c4cn(C)c(=O)n(C)c4=O)c3C)c2Cl)cc(F)c1CNCC(C)(C)C(N)=O` [Example 1.034] returned an IC50 of less than 10 nM.

For the molecule `COc1cc(-c2cccc(-c3cccc(NC(=O)c4cn(C)c(=O)n(C)c4=O)c3C)c2Cl)cc(F)c1CN[C@@H]1CNC(=O)C1` [Example 1.035], the half-inhibitory concentration (IC50) was less than 10 nM.

Take `COc1cc(-c2cccc(-c3cccc(NC(=O)c4cn(C)c(=O)n(C)c4=O)c3C)c2Cl)cc(F)c1CNC[C@@H]1CCC(=O)N1` [Example 1.036]: the IC50 was less than 10 nM.

For `COc1cc(-c2cccc(-c3cccc(NC(=O)c4cn(C)c(=O)n(C)c4=O)c3F)c2C)cc(F)c1CNC[C@@H]1CCC(=O)N1` [Example 1.037], the IC50 was less than 10 nM.

`COc1cc(-c2cccc(-c3cccc(NC(=O)c4cn(C)c(=O)n(C)c4=O)c3C)c2C)cc(F)c1CN[C@@H]1CCOC1` [Example 1.038] yielded a concentration for half-maximal inhibition (IC50) of less than 10 nM.

In the case of `COc1cc(-c2cccc(-c3cccc(NC(=O)c4cn(C)c(=O)n(C)c4=O)c3C)c2C)cc(F)c1CN[C@H]1CCOC1` [Example 1.039], the IC50 is less than 10 nM.

For the molecule `COc1cc(-c2cccc(-c3cccc(Nc4nccc5nccnc45)c3C)c2C)cc(F)c1CN[C@@H]1CCOC[C@@H]1O` [Example 1.040], the concentration for half-maximal inhibition (IC50) was less than 10 nM.

Molecule `COc1cc(-c2cccc(-c3cccc(Nc4cncc5nccnc45)c3C)c2C)cc(F)c1CN[C@@H]1CCOC[C@@H]1O` [Example 1.041] showed an IC50 of less than 10 nM.

Regarding `COc1cc(-c2cccc(-c3cccc(Nc4cncc5nccnc45)c3C)c2C)cc(F)c1CN[C@H]1CCC(=O)NC1` [Example 1.042], the half-maximal inhibitory concentration (IC50) was less than 10 nM.

For `COc1cc(-c2cccc(-c3cccc(Nc4cncc5nccnc45)c3C)c2C)cc(F)c1CN[C@@H]1CNC(=O)C1` [Example 1.043], the IC50 was less than 10 nM.

As to `COc1cc(-c2cccc(-c3cccc(NC(=O)c4cn(C)c(=O)n(C)c4=O)c3F)c2C)cc(F)c1CN[C@@H]1CNC(=O)C1` [Example 1.044], the half-inhibitory concentration (IC50) was 10 to 1000 nM.

`COc1cc(-c2cccc(-c3cccc(NC(=O)c4nn(C)c(=O)n(C)c4=O)c3C)c2C)cc(F)c1CNC1CNC(=O)NC1=O` (stereo not drawn) [Example 1.045] displayed an IC50 of 10 to 1000 nM.

Turning to `COc1cc(-c2cccc(-c3cccc(NC(=O)c4cn(C)c(=O)n(C)c4=O)c3Cl)c2C)cc(F)c1CN[C@@H]1CNC(=O)C1` [Example 1.047], the IC50 was less than 10 nM.

For the molecule `COc1cc(-c2cccc(-c3cccc(Nc4cncc5nccnc45)c3C)c2C)cc(F)c1CNC[C@@H]1CCC(=O)N1` [Example 1.048], the IC50 is less than 10 nM.

In turn, `COc1cc(-c2cccc(-c3cccc(NC(=O)c4c[nH]c(=O)n(C)c4=O)c3C)c2C)cc(F)c1CN[C@@H]1CCOC1` [Example 1.049] gave an IC50 of less than 10 nM.

`COc1cc(-c2cccc(-c3cccc(NC(=O)c4c[nH]c(=O)n(C)c4=O)c3C)c2C)cc(F)c1CN[C@H]1CCOC1` [Example 1.050] had a 50% inhibitory concentration (IC50) of less than 10 nM.

In turn, `COc1cc(-c2cccc(-c3cccc(NC(=O)c4cncn(C)c4=O)c3C)c2C)cc(F)c1CNCC1CCNC(=O)C1` (stereo not drawn) [Example 1.051] had a concentration for half-maximal inhibition (IC50) of less than 10 nM.

`COc1cc(-c2cccc(-c3cccc(NC(=O)c4cn(C)c(=O)n(C)c4=O)c3C)c2C)cc(F)c1CNC1CCOCC1` [Example 1.052] returned an IC50 of less than 10 nM.

As to `COc1cc(-c2cccc(-c3cccc(NC(=O)c4c[nH]c(=O)n(C)c4=O)c3C)c2C)cc(F)c1CNC1CCOCC1` [Example 1.053], the concentration for half-maximal inhibition (IC50) is less than 10 nM.

Consider `COc1cc(-c2cccc(-c3cccc(NC(=O)c4nn(C)c(=O)n(C)c4=O)c3C)c2C)cc(F)c1CNCc1c[nH]c(=O)[nH]c1=O` [Example 1.054], for which the half-inhibitory concentration (IC50) was less than 10 nM.

`COc1cc(-c2cccc(-c3cccc(NC(=O)c4nn(C)c(=O)n(C)c4=O)c3C)c2C)cc(F)c1CNC1CCNC(=O)C1` (stereo not drawn) [Example 1.055] had a concentration for half-maximal inhibition (IC50) of less than 10 nM.
